From US7179825B2, “Retinoic acid mimetic anilides” (Janssen Pharmaceutica N.V., priority 1997, dated 2007)

What follows are compounds tested on Ovariectomized rats (assay: Vaginal keratinization test on ovariectomized rats (Example C.2)). Settings: Rattus norvegicus, po, estradiol undecylate induced keratinization, per os once daily on days 1-3, active dose = 50% of rats show complete suppression, read-out: LAD (lowest active dose).
Type: in vivo
Excerpt: The property to delay the metabolism of retinoic acid can be evidenced in various in vitro and in vivo experiments. A particular in vitro procedure is described in example C.1 and tests the inhibitory activity of the compounds of formula (I) on the metabolism of retinoic acid in human breast cancer cells. The compounds of the present invention were also effective in suppressing induced vaginal keratinization effects in ovariectomized rats as is described in example C.2.
“Vaginal Keratinization Test on Ovariectomized Rats”
Ovariectomized rats were injected subcutaneously with a sesame oil solution containing 100 μg of estradiol undecylate in a volume of 0.1 ml per 100 g body weight and control animals were injected with sesame oil. On day one, two and three, test animals were treated once daily with a per os dose of the test compound and control animals with the drug vehicle (PEG 200). One day after the last treatment, the animals were sacrificed and their vaginas were processed for histological evaluation according to the method described in J. Pharmacol. Exp. Ther. 261(2), 773–779 (1992). A dose at which 50% of the tested rats show complete suppression of the estradiol undecylate induced keratinization effects is defined as an active dose. Table 23 lists the lowest active dose (LAD in mg/kg) of the compounds of formula (I) which were tested.

SMILES | minimal effective dose
CCC(CC)C(c1ccc(NC(=O)CN2CCN(C)CC2)cc1)n1cncn1 (racemic) [Compound 15, (±)-N-[4-[2-ethyl-1-(1H-1,2,4-triazol-1-yl)butyl]phenyl]-4-methyl-1-piperazineacetamide] | > 2.5 mg/kg
CC(=O)Nc1ccc(C(C(C)C)n2ccnc2)cc1 (racemic) [Compound 521, (±)-N-[4-[1-(1H-imidazol-1-yl)-2-methylpropyl]phenyl]acetamide] | 10 mg/kg
CCC(CC)C(c1ccc(NC(=O)C2CCNCC2)cc1)n1ccnc1.Cl (racemic) [Compound 57, (±)-N-[4-[2-ethyl-1-(1H-imidazol-1-yl)butyl]-phenyl]4-piperidinecarboxamide monohydrochloride] | > 5 mg/kg

Same assay, conditions: estradiol undecylate induced keratinization, per os once daily on days 1-3, active dose = 50% of rats show complete suppression

SMILES | LAD (lowest active dose)
COc1cc(CC(=O)Nc2ccc(C(C(C)N(C)C)n3ccnc3)cc2)cc(OC)c1OC (single isomer, unassigned) [Compound 302] | >2.50 mg/kg
CCCCN(C)C(C)C(c1ccc(NC(C)=O)cc1)n1ccnc1 (mixture of isomers) [Compound 562] | 5.00 mg/kg
CCCC(C)C(c1ccc(NC(=O)Cc2ccc(Cl)cc2)cc1)n1cncn1 (racemic) [Compound 638] | >2.50 mg/kg
CC(C(c1ccc(NC(=O)Cc2ccc(O)c(Cl)c2)cc1)n1cncn1)N(C)C (single isomer, unassigned) [Compound 284] | 2.50 mg/kg
COc1ccc(CC(=O)Nc2ccc(C(C(C)OC(=O)N(Cc3ccccc3)Cc3ccccc3)n3ccnc3)cc2)cc1OC (single isomer, unassigned) [Compound 417] | >5.00 mg/kg
CCOC(=O)CC(c1ccc(NC(C)=O)cc1)n1ccnc1 (stereo not drawn) [Compound 560] | >5.00 mg/kg
COc1ccc(CCCC(=O)Nc2ccc(C(C(C)N(C)C)n3cncn3)cc2)cc1OC (single isomer, unassigned) [Compound 326] | >2.50 mg/kg
C/C(=C\c1ccccc1)C(=O)Nc1ccc(C(C(C)N(C)C)n2cncn2)cc1 (single isomer, unassigned) [Compound 632] | >2.50 mg/kg
CCC(CC)C(c1ccc(NC(=O)Cc2ccc(OC)c(Cl)c2)cc1)n1cncn1 (racemic) [Compound 74] | 2.50 mg/kg
COc1cc(CC(=O)Nc2ccc(C(C(C)N(C)C)n3ccnc3)cc2)cc(OC)c1OC (single isomer, unassigned) [Compound 428] | >2.50 mg/kg
COc1ccc(CCC(=O)Nc2ccc(C(C(C)N(C)C)n3cncn3)cc2)cc1OC (single isomer, unassigned) [Compound 629] | >2.50 mg/kg
CCCC(c1ccc(NC(=O)Cc2ccc(Cl)cc2)cc1)(C(CC)CC)n1ccnc1 (racemic) [Compound 766] | >2.50 mg/kg
COc1ccc(C(=O)Nc2ccc(C(CN(C)C)n3ccnc3)cc2)cc1OC (racemic) [Compound 434] | >2.50 mg/kg
CN(C)CC(c1ccc(NC(=O)Cc2ccc(Cl)cc2)cc1)n1ccnc1 (racemic) [Compound 375] | >5.00 mg/kg
CNC(C)C(c1ccc(NC(=O)Cc2ccc(OC)c(OC)c2)cc1)n1ccnc1.O (single isomer, unassigned) [Compound 401] | >2.50 mg/kg
CC(C(c1ccc(NC(=O)Cc2ccc3c(c2)OCCO3)cc1)n1cncn1)N(C)C (single isomer, unassigned) [Compound 322] | >2.50 mg/kg
COc1ccc(CC(=O)Nc2ccc(C(C(C)CO)n3ccnc3)cc2)cc1OC (racemic) [Compound 394, (±)-(B)-3,4-dimethoxy-N-[4-[1-(1H-imidazol-1-yl)-2-(hydroxymethyl)propyl]phenyl]-benzeneacetamide] | >2.50 mg/kg
CC(C(c1ccc(NC(=O)Oc2ccccc2)cc1)n1ccnc1)N(C)C (single isomer, unassigned) [Compound 343] | >2.50 mg/kg
COc1ccc(NC(=O)Nc2ccc(C(c3cccc(C(F)(F)F)c3)n3ccnc3)cc2)cc1 (racemic) [Compound 716] | >2.50 mg/kg
COc1ccc(CC(=O)Nc2ccc(C(C(C)N(C)Cc3ccccc3)n3ccnc3)cc2)cc1OC (single isomer, unassigned) [Compound 398] | >5.00 mg/kg
CCN(CC)C(C)C(c1ccc(NC(C)=O)cc1)n1cncn1 (single isomer, unassigned) [Compound 647] | >5.00 mg/kg
COc1ccc(C(=O)Nc2ccc(C(C(C)N(C)C)n3cncn3)cc2)cc1OC (single isomer, unassigned) [Compound 324] | >2.50 mg/kg
COc1cc(CC(=O)Nc2ccc(C(C(C)N(C)C)n3cncn3)cc2)ccc1C (single isomer, unassigned) [Compound 294] | >2.50 mg/kg
COc1ccc(CC(=O)Nc2ccc(C(C(C)N(C)C)n3cncn3)cc2)cc1OC (single isomer, unassigned) [Compound 287] | >2.50 mg/kg

SMILES | LAD (lowest active dose)
CCCCN(C)C(C)C(c1ccc(NC(=O)Cc2ccc(OC)c(OC)c2)cc1)n1ccnc1 (single isomer, unassigned) [Compound 406] | >5.00 mg/kg
COc1ccc(CCCC(=O)Nc2ccc(C(C(C)N(C)C)n3cncn3)cc2)cc1OC (single isomer, unassigned) [Compound 329] | >2.50 mg/kg
CCC(c1ccc(NC(C)=O)cc1)(C(C)C)n1ccnc1 (stereo not drawn) [Compound 754] | 10.00 mg/kg
CCOc1ccc(CCC(=O)Nc2ccc(C(C(C)N(C)C)n3ccnc3)cc2)cc1 (stereo not drawn) [Compound 348] | >2.50 mg/kg
COc1ccc(CC(=O)Nc2ccc(C(C3CCCN(C)C3)n3ccnc3)cc2)cc1OC (single isomer, unassigned) [Compound 410] | >5.00 mg/kg
CC(C(c1ccc(NC(=O)Cc2ccc(Cl)cc2)cc1)n1cncn1)N(C)C (single isomer, unassigned) [Compound 784] | >5.00 mg/kg
CC(=O)Nc1ccc(C(C(C)N(C)C)n2cncn2)cc1 (racemic) [Compound 631, (±)-(B)-N-[4-[2-(dimethylamino)-1-(1H-1,2,4-triazol-1-yl)propyl]phenyl]acetamide] | >2.50 mg/kg
CCC(CC)C(c1ccc(NC(=O)c2ccccc2)cc1)n1cncn1 (stereo not drawn) [Compound 3] | >2.50 mg/kg
CCOc1ccc(CCC(=O)Nc2ccc(C(C(CC)CC)n3ccnc3)cc2)cc1 (single isomer, unassigned) [Compound 62] | >5.00 mg/kg
COc1ccc(CC(=O)Nc2ccc(C(C(C)N3CCOCC3)n3ccnc3)cc2)cc1OC (single isomer, unassigned) [Compound 409] | 5.00 mg/kg
CCN(CC)C(C)C(c1ccc(NC(=O)Cc2ccc(OC)c(OC)c2)cc1)n1ccnc1 (single isomer, unassigned) [Compound 387] | >2.50 mg/kg
CC(C(c1ccc(NC(=O)Cc2ccc(Cl)cc2)cc1)n1cncn1)N(C)C (single isomer, unassigned) [Compound 785] | 5.00 mg/kg
CCCN(C)C(C)C(c1ccc(NC(C)=O)cc1)n1ccnc1 (mixture of isomers) [Compound 570] | >5.00 mg/kg
COc1ccc(CC(=O)N(C)c2ccc(C(C(C)N(C)C)n3cncn3)cc2)cc1OC (single isomer, unassigned) [Compound 438] | >2.50 mg/kg
O=C(Nc1ccc(C(c2cccc(C(F)(F)F)c2)n2ccnc2)cc1)Nc1ccccc1F (racemic) [Compound 714] | 2.50 mg/kg
COc1ccc(CC(=O)Nc2ccc(C(C(C)N(C)C)n3ccnc3)cc2)cc1C (single isomer, unassigned) [Compound 312] | >2.50 mg/kg
COc1ccc(CC(=O)Nc2ccc(C(C(C)CN(C)C)n3ccnc3)cc2)cc1OC (single isomer, unassigned) [Compound 391] | >5.00 mg/kg
CCN(C)C(C)C(c1ccc(NC(C)=O)cc1)n1ccnc1 (mixture of isomers) [Compound 566] | 5.00 mg/kg
COc1ccc(CC(=O)Nc2ccc(C(C(C)CN(C)C)n3ccnc3)cc2)cc1OC (single isomer, unassigned) [Compound 392] | >5.00 mg/kg
CC(C(c1ccc(NC(=S)Nc2nc3ccccc3s2)cc1)n1ccnc1)N(C)C (single isomer, unassigned) [Compound 704] | >5.00 mg/kg
CCC(CC)C(c1ccc(NC(=O)C(O)c2ccc(Cl)cc2)cc1)n1cncn1 (single isomer, unassigned) [Compound 20] | 2.50 mg/kg
COCC(c1ccc(NC(=O)Cc2ccc(OC)c(OC)c2)cc1)n1ccnc1 (racemic) [Compound 397] | >2.50 mg/kg
COc1ccc(CC(=O)Nc2ccc(C(C(C)CO)n3ccnc3)cc2)cc1OC (racemic) [Compound 386, (±)-(A)-3,4-dimethoxy-N-[4-[1-(1H-imidazol-1-yl)-2-(hydroxymethyl)propyl]phenyl]benzeneacetamide] | >2.50 mg/kg
CCC(CC)C(CC)(c1ccc(NC(=O)Cc2ccc(Cl)cc2)cc1)n1ccnc1 (racemic) [Compound 768] | >2.50 mg/kg
